# Measurements reported in EP0670711B1, “ANTIFUNGAL MOUTHCARE COMPOSITIONS” (AMBI Inc., priority 1992, dated 1994).
# Where two headings read alike, the source gives them in different places.
# Experiments:
# Assay type in all cases: cell-based
# Strep. agalactiæ = test: nominal inhibitory concentration (NIC) assay; conditions: read-out: NIC
# Strep. sanguis = test: nominal inhibitory concentration (NIC) assay; conditions: read-out: NIC
# Strep.mutans = test: nominal inhibitory concentration (NIC) assay; conditions: Streptococcus mutans, read-out: NIC
# Strep. milleri = test: nominal inhibitory concentration (NIC) assay; conditions: read-out: NIC
# Strep. mitis = test: nominal inhibitory concentration (NIC) assay; conditions: Streptococcus mitis, read-out: NIC
# Strep mitior = test: nominal inhibitory concentration (NIC) assay; conditions: read-out: NIC
# Strep. salivarius = test: nominal inhibitory concentration (NIC) assay; conditions: Streptococcus salivarius, read-out: NIC
# Strep.pyogenes = test: nominal inhibitory concentration (NIC) assay; conditions: Streptococcus pyogenes, read-out: NIC
# Staph.aureus = test: nominal inhibitory concentration (NIC) assay; conditions: Staphylococcus aureus, read-out: NIC
# A actinomyces NCTC 9709 = test: zone diffusion assay; conditions: solution with 500ppm of each agent
# Description: (§1) The assay was repeated for each of cetyl pyridinium chloride, chlorhexidine or triclosan individually. […]
# C albicans NCTC 3089 = test: zone diffusion assay; conditions: solution with 500ppm of each agent
# Description: as §1
# C kefyr NCTC 3106 = test: zone diffusion assay; conditions: solution with 500ppm of each agent
# Description: as §1
# C tropicalis NCTC 3114 = test: zone diffusion assay; conditions: solution with 500ppm of each agent
# Description: as §1
# F nucleatum NCTC 10562 = test: zone diffusion assay; conditions: solution with 500ppm of each agent
# Description: as §1
# S mutans NCTC 11061 = test: zone diffusion assay; conditions: solution with 500ppm of each agent
# Description: as §1
# S sanguis NCTC 10904 = test: zone diffusion assay; conditions: solution with 500ppm of each agent
# Description: as §1
# W recta NCTC 11489 = test: zone diffusion assay; conditions: solution with 500ppm of each agent
# Description: as §1
# G.vaginalis = test: nominal inhibitory concentration (NIC) assay; conditions: Gardnerella vaginalis, read-out: NIC
# Lacto odontolyticus = test: nominal inhibitory concentration (NIC) assay; conditions: read-out: NIC
# Act. odontolyticus = test: nominal inhibitory concentration (NIC) assay; conditions: Schaalia odontolytica, read-out: NIC
# Act. israelii = test: nominal inhibitory concentration (NIC) assay; conditions: Actinomyces israelii, read-out: NIC
# Act. naeslundii = test: nominal inhibitory concentration (NIC) assay; conditions: Actinomyces naeslundii, read-out: NIC
# Act. actinomycetem = test: nominal inhibitory concentration (NIC) assay; conditions: read-out: NIC
# Fuso. nucleatum = test: nominal inhibitory concentration (NIC) assay; conditions: Fusobacterium nucleatum, read-out: NIC
# Bact. intermedius = test: nominal inhibitory concentration (NIC) assay; conditions: Prevotella intermedia, read-out: NIC
# Peptostrepto. micros = test: nominal inhibitory concentration (NIC) assay; conditions: read-out: NIC
# Porph. gingivalis = test: nominal inhibitory concentration (NIC) assay; conditions: Porphyromonas gingivalis, read-out: NIC
# Bact. ureolyticus = test: nominal inhibitory concentration (NIC) assay; conditions: read-out: NIC
# Candida albicans = test: nominal inhibitory concentration (NIC) assay; conditions: read-out: NIC
# Candida kefyr = test: nominal inhibitory concentration (NIC) assay; conditions: Kluyveromyces marxianus, read-out: NIC
# Candida tropicalis = test: nominal inhibitory concentration (NIC) assay; conditions: read-out: NIC
# [1] = test system: all the organisms shown in the Example 25 Table 1; test: NIC assay, summary over all organisms of Table 1; conditions: read-out: levels needed to inhibit all the desired oral microrganisms
# Candida organisms = test: NIC assay, summary for Candida; conditions: for MIC: read-out: levels for Candida inhibition; for inhibitory activity against candida species: result in words, NIC assay
smiles,measurement,setting,value
"[H]/N=C(\N/C(=N/[H])NCCCCCCNC(=N)NC(=N)Nc1ccc(Cl)cc1)Nc1ccc(Cl)cc1 [CHX, chlorhexidine]",MIC,Strep. agalactiæ; Strep. agalactiæ,0.41 µg/mL
same,MIC,Strep. sanguis; Strep. sanguis,0.86 µg/mL
same,MIC,Strep.mutans; Strep.mutans,3.94 µg/mL
same,MIC,Strep. milleri; Strep. milleri,1.58 µg/mL
same,MIC,Strep. mitis; Strep. mitis,1.5 µg/mL
same,MIC,Strep mitior; Strep mitior,4.55 µg/mL
same,MIC,Strep. salivarius; Strep. salivarius,1.44 µg/mL
same,MIC,Strep.pyogenes; Strep.pyogenes,0.16 µg/mL
same,MIC,Staph.aureus; Staph.aureus,0.54 µg/mL
same,mean zones,A actinomyces NCTC 9709,35.68 mm
same,mean zones,C albicans NCTC 3089,14.93 mm
same,mean zones,C kefyr NCTC 3106,17.03 mm
same,mean zones,C tropicalis NCTC 3114,17.36 mm
same,mean zones,F nucleatum NCTC 10562,36.97 mm
same,mean zones,S mutans NCTC 11061,29.68 mm
same,mean zones,S sanguis NCTC 10904,22.76 mm
same,mean zones,W recta NCTC 11489,32.35 mm
same,MIC,G.vaginalis; G.vaginalis,1.3 µg/mL
same,MIC,Lacto odontolyticus; Lacto odontolyticus,1.88 µg/mL
same,MIC,Act. odontolyticus; Act. odontolyticus,3.37 µg/mL
same,MIC,Act. israelii; Act. israelii,4.11 µg/mL
same,MIC,Act. naeslundii; Act. naeslundii,2.01 µg/mL
same,MIC,Act. actinomycetem; Act. actinomycetem,0.53 µg/mL
same,MIC,Fuso. nucleatum; Fuso. nucleatum,0.64 µg/mL
same,MIC,Bact. intermedius; Bact. intermedius,2.49 µg/mL
same,MIC,Peptostrepto. micros; Peptostrepto. micros,8.46 µg/mL
same,MIC,Porph. gingivalis; Porph. gingivalis,2.36 µg/mL
same,MIC,Bact. ureolyticus; Bact. ureolyticus,0.69 µg/mL
same,MIC,Candida albicans,1.71 µg/mL
same,MIC,Candida kefyr; Candida kefyr,0.42 µg/mL
same,MIC,Candida tropicalis,0.98 µg/mL
same,MIC,[1],~8.46 µg/mL
same,MIC,Candida organisms; Candida organisms,1.71 µg/mL
same,inhibitory activity against candida species,Candida organisms,effective
"CCCCCCCCCCCCCCCC[n+]1ccccc1 [CPC, cetyl pyridinium chloride]",MIC,Strep. agalactiæ,0.78 µg/mL
same,MIC,Strep. sanguis,2.12 µg/mL
same,MIC,Strep.mutans,3.1 µg/mL
same,MIC,Strep. milleri,4.58 µg/mL
same,MIC,Strep. mitis,2.23 µg/mL
same,MIC,Strep mitior,1.22 µg/mL
same,MIC,Strep. salivarius,2.36 µg/mL
same,MIC,Strep.pyogenes,0.78 µg/mL
same,MIC,Staph.aureus,0.66 µg/mL
same,mean zones,A actinomyces NCTC 9709,19.41 mm
same,mean zones,C albicans NCTC 3089,9.79 mm
same,mean zones,C kefyr NCTC 3106,10.43 mm
same,mean zones,C tropicalis NCTC 3114,10.39 mm
same,mean zones,F nucleatum NCTC 10562,18.99 mm
same,mean zones,S mutans NCTC 11061,17.05 mm
same,mean zones,S sanguis NCTC 10904,14.44 mm
same,mean zones,W recta NCTC 11489,17.15 mm
same,MIC,G.vaginalis,0.3 µg/mL
same,MIC,Lacto odontolyticus,0.83 µg/mL
same,MIC,Act. odontolyticus,1.23 µg/mL
same,MIC,Act. naeslundii,4.61 µg/mL
same,MIC,Act. actinomycetem,1.02 µg/mL
same,MIC,Fuso. nucleatum,0.82 µg/mL
same,MIC,Bact. intermedius,4.68 µg/mL
same,MIC,Peptostrepto. micros,4.96 µg/mL
same,MIC,Porph. gingivalis,0.94 µg/mL
same,MIC,Bact. ureolyticus,0.56 µg/mL
same,MIC,Candida kefyr,0.61 µg/mL
same,MIC,Candida tropicalis,0.48 µg/mL
"Oc1cc(Cl)ccc1Oc1ccc(Cl)cc1Cl [TCN, triclosan]",MIC,Strep. agalactiæ,4.96 µg/mL
same,MIC,Strep. sanguis,0.88 µg/mL
same,MIC,Strep.mutans,1.11 µg/mL
same,MIC,Strep. milleri,1.08 µg/mL
same,MIC,Strep. mitis,3.94 µg/mL
same,MIC,Strep mitior,4.23 µg/mL
same,MIC,Strep. salivarius,4.05 µg/mL
same,MIC,Strep.pyogenes,4.35 µg/mL
same,MIC,Staph.aureus,0.09 µg/mL
same,mean zones,A actinomyces NCTC 9709,35.92 mm
same,mean zones,C albicans NCTC 3089,16.99 mm
same,mean zones,C kefyr NCTC 3106,21.99 mm
same,mean zones,C tropicalis NCTC 3114,13.66 mm
same,mean zones,F nucleatum NCTC 10562,33.98 mm
same,mean zones,S mutans NCTC 11061,32.82 mm
same,mean zones,S sanguis NCTC 10904,28.97 mm
same,mean zones,W recta NCTC 11489,37.20 mm
same,MIC,G.vaginalis,0.41 µg/mL
same,MIC,Lacto odontolyticus,7.49 µg/mL
same,MIC,Act. odontolyticus,3.02 µg/mL
same,MIC,Act. israelii,3.19 µg/mL
same,MIC,Act. naeslundii,1.98 µg/mL
same,MIC,Act. actinomycetem,1.69 µg/mL
same,MIC,Fuso. nucleatum,1.6 µg/mL
same,MIC,Bact. intermedius,3.72 µg/mL
same,MIC,Peptostrepto. micros,6.76 µg/mL
same,MIC,Porph. gingivalis,4 µg/mL
same,MIC,Bact. ureolyticus,7.65 µg/mL
same,MIC,Candida albicans,1 µg/mL
same,MIC,Candida kefyr,0.46 µg/mL
same,MIC,Candida tropicalis,0.35 µg/mL
same,MIC,[1],~7.65 µg/mL
same,MIC,Candida organisms; Candida,~1 µg/mL
same,inhibitory activity against candida species,Candida organisms,effective
